Reference: patent US20250213547A1, “METHODS OF TREATING NEUROLOGICAL DISEASES” (priority 2022, published 2025)
Like-named read-outs stand apart in the source and are kept apart here.

Columns and labels:
[1] = Description: The datasets from the clinical trials described above were used in a population PK and PK/PD modeling analysis. Three PK samples were excluded from the analyses because their baseline values were over the limit of quantification. The ELEKTRA dataset contained 69 single-dose and 270 steady-state dose events. Individual variables from those studies were included in the dataset to determine significant covariates and their effect size. Subject variables included the study ID, patient ID, treatment, health status, and DEE disease type. Baseline demographic variables included age, body weight, body mass index, gender, race, and Chinese or Asian ethnic origin. Baseline laboratory variables included aspartate aminotransferase (AST), gamma-glutamyl transferase (GGT), alkaline phosphatase (ALP), bilirubin, creatinine, albumin, alpha-1-acid glycoprotein (A1-AGLP), estimated glomerular filtration rate (eGFR), and creatinine clearance (CrCl)) (see formulas in example 12). […] Another variable was the type of antiepileptic drugs patients were on concomitantly during the trial.
The dataset included 2193 observations from 173 subjects. Both PK and PK/PD parameters were analyzed as a mixed-effects population model using the computer program NONMEM. A mixed-effects model takes into account fixed value parameters and random-effect parameters. The first stage of the analysis began with using only data obtained from the oral solution studies in a structural and statistical base model to account for concentration changes over time and for between and within subject variability. Several different structural model types were tested and the structure of the omega complex was optimized. Omega, expressed as random effects variance, represents the difference between an individual's parameter value and the population value and describes the distribution of between subject variability across the population. The linear two-compartment model incorporates delayed first-order absorption from oral administration. Model parameters were absorption lag time (ALAG1), bioavailability (F1), elimination clearance (CL), absorption rate constant (KA), central volume (V2), inter-compartmental clearance (Q), and peripheral volume (V3). Random effects were estimated for F1, KA, Q, and V3. The omega matrix was restricted to a diagonal structure, wherein between parameter correlations are ignored. A combined additive and proportional residue error model was utilized to broadly reflect […].
The second stage of the analysis added data collected from the tablet formulation studies in adults.
The third stage of the analysis added the pediatric data collected from the ELEKTRA study. A range of different formulations and administration procedures were used for the pediatric patients, including swallowed mini-tablets, tablets, and crushed tablets administered through a gastrostomy tube. […] Next variables were screened separately by correlating the individual random effects with the base model. An F-test was used to determine the significance of the individual random effects with and without the variable. Candidates were further screened using a standard forward inclusion (α<0.05), backward deletion (α<0.01) procedure.

[2] = tested on: plasma 24HC; assay: Healthy Japanese subjects, Part 1: plasma 24HC pharmacodynamics; format: in vivo, human; settings: for AUEC24 of plasma 24HC / AUECt of plasma 24HC (time 0 to last sampling time point) / E24 of plasma 24HC (observed effect at 24 hours) / Emax of plasma 24HC (maximum drug-induced effect): mean (% CV); for Emax: Homo sapiens, read-out: % change from Baseline in Emax of plasma 24HC; for Emax / % change from Baseline in AUEC24 of plasma 24HC / % change from Baseline in E24 of plasma 24HC: mean; for Time to Emax of plasma 24HC: median (min-max)
Protocol: On Day 1 of each dose level, a single dose of TAK-935 or placebo was administered, and safety, PK and PD were evaluated.
Blood samples for PD analysis of plasma 24HC level were collected into blood collection tubes (vacutainer) containing the anticoagulant K2EDTA.
The PD assessments described below were performed at the time points stipulated in the schedule of procedures. The additional PD endpoints included the following PD parameters for plasma 24HC: […]

[3] = between subject variation as standard deviation

O=C(c1cccnc1-c1ccncc1)N1CCC(O)(Cc2ccccc2)CC1 [soticlestat]
simulated change in AUC with twice the dosage ([1]; FIG. 21, reference ELEKTRA patient 100 mg BID): 130% | F1: BSV [1, 3]: 0.538 | KA: BSV [1, 3]: 1.1 | Q: BSV [1, 3]: 0.369 | V3: BSV [1, 3]: 0.559 | ALAG1: Non-OS formulation (%) ([1]; covariate effect on ALAG1): 25.2% | CL: Patient (%) ([1]; covariate effect on CL): −24.4% | F1: A1-AGLP exponent ([1]; covariate effect on F1): 0.739 | F1: weight exponent ([1]; covariate effect on F1): −0.516 | F1: Dose exponent ([1]; covariate effect on F1, fixed): 0.204 | KA: BMI exponent ([1]; covariate effect on KA): 2.52 | KA: Strong Inducer (%) ([1]; covariate effect on KA): −73.7% | KA: non-OS formulation (%) ([1]; covariate effect on KA): −45.7% | KA: Dose exponent ([1]; covariate effect on KA, fixed): −0.753 | Q: Dose exponent ([1]; covariate effect on Q, fixed): −0.218 | V3: Asian (%) ([1]; covariate effect on V3): −39.4% | V3: eGFI exponent ([1]; covariate effect on V3): −0.469 | V3: Dose exponent ([1]; covariate effect on V3, fixed): −0.214 | ALAG1 typical value ([1]; final population PK model): 0.131 h | F1: BSV explained by A1-AGLP (%) ([1]; final population PK model): 33.6% | KA typical value ([1]; final population PK model): 7.49 h⁻¹ | Q typical value ([1]; final population PK model): 1.16 L/h | V2 typical value ([1]; final population PK model): 2.99 L | V3 typical value ([1]; final population PK model): 7.51 L | F1 typical value ([1]; final population PK model, fixed): 0.0216 | CL typical value ([1]; human): 4.31 L/h | estimated weight exponent on steady state AUC ([1]; human): 0.516 | typical value for CL/F ([1]; human): 150 L/h | typical value for V2/F (central volume distribution) ([1]; population model): 138.43 L | maximum decrease in percent change from Baseline of mean AUEC24 ([2]; 1200 mg single dose, compared with placebo): approximately 11.4% | AUEC24 of plasma 24HC ([2]; Day 1, single dose 200 mg): 1017 (27.5) h*ng/mL | AUEC24 of plasma 24HC ([2]; Day 1, single dose 600 mg): 1311 (30.2) h*ng/mL | AUEC24 of plasma 24HC ([2]; Day 1, single dose 1200 mg): 898.3 (16.6) h*ng/mL | Emax ([2]; single dose 200 mg): -17.7% | Emax ([2]; single dose 600 mg): -21.4% | Emax ([2]; single dose 1200 mg): -29.7% | % change from Baseline in AUEC24 of plasma 24HC ([2]; single dose 200 mg): −8.875% | % change from Baseline in E24 of plasma 24HC ([2]; single dose 200 mg): −20.29% | AUECt of plasma 24HC (time 0 to last sampling time point) ([2]; single dose 200 mg): 1918 (26.0) h*ng/mL | E24 of plasma 24HC (observed effect at 24 hours) ([2]; single dose 200 mg): 39.95 (25.4) ng/mL | Emax of plasma 24HC (maximum drug-induced effect) ([2]; single dose 200 mg): 35.25 (24.3) ng/mL | Time to Emax of plasma 24HC ([2]; single dose 200 mg): 48.00 (48.0-48.0) h | % change from Baseline in AUEC24 of plasma 24HC ([2]; single dose 600 mg): −8.482% | % change from Baseline in E24 of plasma 24HC ([2]; single dose 600 mg): −24.02% | AUECt of plasma 24HC (time 0 to last sampling time point) ([2]; single dose 600 mg): 2425 (31.2) h*ng/mL | E24 of plasma 24HC (observed effect at 24 hours) ([2]; single dose 600 mg): 48.47 (32.0) ng/mL | Emax of plasma 24HC (maximum drug-induced effect) ([2]; single dose 600 mg): 43.25 (35.3) ng/mL | Time to Emax of plasma 24HC ([2]; single dose 600 mg): 48.00 (24.0-48.0) h | % change from Baseline in AUEC24 of plasma 24HC ([2]; single dose 1200 mg): −11.36% | % change from Baseline in E24 of plasma 24HC ([2]; single dose 1200 mg): −22.65% | AUECt of plasma 24HC (time 0 to last sampling time point) ([2]; single dose 1200 mg): 1627 (18.7) h*ng/mL | E24 of plasma 24HC (observed effect at 24 hours) ([2]; single dose 1200 mg): 33.57 (19.8) ng/mL | Emax of plasma 24HC (maximum drug-induced effect) ([2]; single dose 1200 mg): 27.30 (24.4) ng/mL | Time to Emax of plasma 24HC ([2]; single dose 1200 mg): 48.00 (48.0-48.0) h
